Assay results published in PubChem BioAssay (NCI).
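48-hour exposure; five concentrations; linearly interpolated endpoints. At the GI50, growth is halved. TGI marks complete inhibition of growth.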

How the values were obtained:
Experiment in all cases: DTP human tumour cell line panel, 48 h
ACHN renal = system: ACHN renal
EKVX NSCLC = system: EKVX NSCLC
HT29 colon = system: HT29 colon
MOLT-4 leukemia = system: MOLT-4 leukemia
SNB-75 CNS = system: SNB-75 CNS
TK-10 renal = system: TK-10 renal
HCT-116 colon = system: HCT-116 colon
UACC-62 melanoma = system: UACC-62 melanoma
BT-549 breast = system: BT-549 breast

| Compound | TGI (ACHN renal) | TGI (EKVX NSCLC) | TGI (HT29 colon) | TGI (MOLT-4 leukemia) | TGI (SNB-75 CNS) | TGI (TK-10 renal) | TGI (HCT-116 colon) | TGI (UACC-62 melanoma) | GI50 (ACHN renal) | GI50 (BT-549 breast) | TGI (BT-549 breast) | GI50 (EKVX NSCLC) | GI50 (HCT-116 colon) | GI50 (HT29 colon) | GI50 (MOLT-4 leukemia) | GI50 (SNB-75 CNS) | GI50 (TK-10 renal) |
| --- | --- | --- | --- | --- | --- | --- | --- | --- | --- | --- | --- | --- | --- | --- | --- | --- | --- |
| CCc1cccc(CC)c1NC(=O)C1=CNC(C)=C(C(=O)Nc2c(CC)cccc2CC)C1c1ccc(O)c(OC)c1 (stereo unspecified) | > 100 µM | > 100 µM | 80.2 µM | 82.9 µM | > 100 µM | > 100 µM |  |  |  |  |  |  |  |  |  |  |  |
| CC1CCC2[C@@H](C)COC3O[C@]4(C)CCC1C32OO4 (stereo partly specified) | > 100 µM | > 100 µM | > 100 µM |  | > 100 µM | > 100 µM | > 100 µM | > 100 µM |  |  |  |  |  |  |  |  |  |
| O=S1Cc2ccccc2CSS1 (stereo unspecified) | 30.9 µM | 53.9 µM | 32.1 µM | 52.1 µM | 43.4 µM | 33.2 µM | 28.3 µM | 26.5 µM |  |  |  |  |  |  |  |  |  |
| CC(=O)Nc1ccc(OCC(O)CO)cc1 (stereo unspecified) | > 100 µM | > 100 µM | > 100 µM | > 100 µM | > 100 µM | > 100 µM | > 100 µM | > 100 µM |  |  |  |  |  |  |  |  |  |
| Cc1ccc(SSCCCCS(=O)O)cc1 | 62.7 µM | 55.6 µM | 53.7 µM | > 100 µM | > 100 µM | 46.8 µM | > 100 µM | 42.6 µM |  |  |  |  |  |  |  |  |  |
| Cc1ccccc1NC(=O)CC(=O)n1nc(-c2ccccc2)c(N=Nc2ccc([N+](=O)[O-])cc2)c1-c1ccccc1 | 44.5 µM | 88.1 µM | 24.5 µM | 64.8 µM | > 100 µM | > 100 µM | 31.5 µM | 29.6 µM |  |  |  |  |  |  |  |  |  |
| C(=NCCN=Cc1cccc2ccccc12)c1cccc2ccccc12 | > 100 µM | > 100 µM | > 100 µM | > 100 µM | > 100 µM | > 100 µM | > 100 µM | > 100 µM |  |  |  |  |  |  |  |  |  |
| C#Cc1ccccc1N1C(=O)C=CC1=O | > 100 µM | > 100 µM | > 100 µM | > 100 µM | > 100 µM | > 100 µM | > 100 µM | > 100 µM |  |  |  |  |  |  |  |  |  |
| ClCCCN1CCCCC1CCl (stereo unspecified) | > 100 µM |  | > 100 µM | > 100 µM | > 100 µM | > 100 µM | > 100 µM | > 100 µM |  |  |  |  |  |  |  |  |  |
| CCOc1ccccc1NC(=O)C(=O)c1c(O)c2ccc(O)cc2oc1=O | > 100 µM | > 100 µM | > 100 µM | > 100 µM | > 100 µM | > 100 µM | > 100 µM | > 100 µM |  |  |  |  |  |  |  |  |  |
| CC(=O)OC1(C#N)CC2OC1C1NC21 (stereo unspecified) | > 100 µM | > 100 µM |  | > 100 µM | > 100 µM | > 100 µM | > 100 µM | > 100 µM |  |  |  |  |  |  |  |  |  |
| CN/N=C(/CC(=O)c1sc(NNC(C)=O)nc1C)C(=O)Nc1ccc(OC)cc1OC | > 100 µM | > 100 µM | > 100 µM | > 100 µM |  | > 100 µM | > 100 µM | > 100 µM |  |  |  |  |  |  |  |  |  |
| COc1c(OC2OC(CO)C(O)C(O)C2O)cc2c(c1OC)-c1ccc(OC)c(=O)cc1[C@@H](NC(C)=O)CC2 (stereo partly specified) | > 100 µM | > 100 µM | > 100 µM | > 100 µM | 84.4 µM | > 100 µM | > 100 µM | > 100 µM |  |  |  |  |  |  |  |  |  |
| NNC(=O)N/N=C1/C(=O)N(c2ccc(Cl)c(Cl)c2)C(=O)C(=O)C1c1nc2ccccc2o1 (stereo unspecified) | > 100 µM | > 100 µM | > 100 µM | > 100 µM | > 100 µM | > 100 µM | > 100 µM | > 100 µM |  |  |  |  |  |  |  |  |  |
| COc1ccc2c(c1)C(=O)c1c-2n(CCCNCCO)c(=O)c2cc([N+](=O)[O-])ccc12 | < 0.034 µM | 4.77 µM | 1.09 µM | < 0.01 µM | 0.172 µM | 11.8 µM | 0.192 µM |  | < 0.01 µM | 0.0226 µM | 1.21 µM | 0.0733 µM | < 0.01 µM | < 0.01 µM | < 0.01 µM | < 0.01 µM | 0.28 µM |
| CC1=C(C(=O)NCc2ccccc2)C(c2ccccc2O)C(C(=O)NCc2ccccc2)=C(C)N1 | 30.9 µM | 45.6 µM | 38.5 µM | > 100 µM | > 71.3 µM | 34 µM | 28.5 µM | 34 µM |  |  |  |  |  |  |  |  |  |
| COc1ccc(S(=O)(=O)N/N=C/CN2C(=O)c3ccccc3C2=O)cc1 | > 100 µM | > 100 µM | > 100 µM | > 100 µM | > 100 µM |  |  | > 100 µM |  |  |  |  |  |  |  |  |  |
| Cc1ccc(NC(=O)CC2C(=O)Nc3ccccc3S2(=O)=O)cc1C (stereo unspecified) | > 100 µM | > 100 µM | > 100 µM | > 100 µM | > 100 µM | > 100 µM | > 100 µM | > 100 µM |  |  |  |  |  |  |  |  |  |
| CCOc1cc[n+](C(=C=[N-])C#N)cc1 |  | > 100 µM | > 100 µM | > 100 µM | > 100 µM | > 100 µM | > 100 µM | > 100 µM |  |  |  |  |  |  |  |  |  |
